Reference: patent US8557843B2, “Quinoline derivatives and their use as tyrosine kinase inhibitors” (ClanoTech AB, priority 2007, dated 2013)

Assays:
alpha-5-beta-1 = target: T1, alpha-5-beta-1 (Homo sapiens, UniProt P05556+P08648); assay: Integrin assay: SHG, inhibition of RGD-peptide-induced conformational change; type: biochemical; settings: compound pre-incubated at 100 μM for 20 minutes, then RGD peptide 400 μM; labeled alpha-5-beta-1
T1 construct: obtained from academic sources as recombinant, soluble proteins (the extracellular domain)
T1 sequence (P08648 42-995 limits assumed): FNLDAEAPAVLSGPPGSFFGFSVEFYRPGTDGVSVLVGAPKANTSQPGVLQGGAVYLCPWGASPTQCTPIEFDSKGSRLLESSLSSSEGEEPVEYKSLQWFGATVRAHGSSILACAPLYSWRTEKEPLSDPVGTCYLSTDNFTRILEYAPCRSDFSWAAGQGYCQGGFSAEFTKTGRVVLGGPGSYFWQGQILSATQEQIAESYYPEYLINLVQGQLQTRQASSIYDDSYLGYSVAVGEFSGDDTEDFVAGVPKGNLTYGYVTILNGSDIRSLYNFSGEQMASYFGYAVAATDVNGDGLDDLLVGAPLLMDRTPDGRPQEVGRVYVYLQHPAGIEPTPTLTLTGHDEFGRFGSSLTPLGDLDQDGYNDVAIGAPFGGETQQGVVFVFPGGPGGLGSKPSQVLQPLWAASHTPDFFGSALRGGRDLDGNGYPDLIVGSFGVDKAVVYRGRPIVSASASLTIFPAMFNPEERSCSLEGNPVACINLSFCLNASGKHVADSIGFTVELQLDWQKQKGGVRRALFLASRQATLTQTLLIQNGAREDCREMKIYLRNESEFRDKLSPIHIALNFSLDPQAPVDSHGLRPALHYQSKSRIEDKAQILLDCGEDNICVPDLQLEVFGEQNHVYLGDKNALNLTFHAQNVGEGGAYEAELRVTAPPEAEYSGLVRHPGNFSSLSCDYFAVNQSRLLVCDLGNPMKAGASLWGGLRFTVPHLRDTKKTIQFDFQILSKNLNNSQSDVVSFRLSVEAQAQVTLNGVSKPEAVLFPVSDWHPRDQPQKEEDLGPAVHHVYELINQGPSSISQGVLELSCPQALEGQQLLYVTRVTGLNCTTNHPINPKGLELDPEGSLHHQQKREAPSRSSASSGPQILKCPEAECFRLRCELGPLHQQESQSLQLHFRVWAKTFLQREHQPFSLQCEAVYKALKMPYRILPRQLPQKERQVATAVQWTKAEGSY
T1 sequence (P05556 21-728 limits assumed): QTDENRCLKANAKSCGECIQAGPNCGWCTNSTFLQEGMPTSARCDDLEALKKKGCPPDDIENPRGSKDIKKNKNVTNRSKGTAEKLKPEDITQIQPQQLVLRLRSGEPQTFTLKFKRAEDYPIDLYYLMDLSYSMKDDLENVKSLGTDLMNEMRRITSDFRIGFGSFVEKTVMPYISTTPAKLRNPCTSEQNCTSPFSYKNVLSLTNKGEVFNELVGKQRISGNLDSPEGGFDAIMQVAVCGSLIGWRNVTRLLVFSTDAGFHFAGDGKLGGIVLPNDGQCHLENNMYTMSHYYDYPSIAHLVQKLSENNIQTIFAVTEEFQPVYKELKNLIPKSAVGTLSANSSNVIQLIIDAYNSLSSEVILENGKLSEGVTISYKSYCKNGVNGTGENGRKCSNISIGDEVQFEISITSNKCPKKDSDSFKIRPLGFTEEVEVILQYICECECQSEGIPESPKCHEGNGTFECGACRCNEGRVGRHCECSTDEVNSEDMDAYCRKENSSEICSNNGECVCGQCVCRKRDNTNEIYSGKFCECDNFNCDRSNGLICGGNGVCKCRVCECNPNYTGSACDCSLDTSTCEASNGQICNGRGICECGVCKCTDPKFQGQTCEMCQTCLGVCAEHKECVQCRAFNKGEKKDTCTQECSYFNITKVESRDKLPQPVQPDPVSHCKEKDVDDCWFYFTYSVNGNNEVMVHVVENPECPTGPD
Description: (§1) This assay was conducted by Biodesy (Burlingame, Calif., USA). Purified integrins were obtained from academic and commercial sources. Alpha-5-beta-1 and alpha-v-beta-3 were obtained from academic sources as recombinant, soluble proteins (the extracellular domain).
(§2) A standard labeling protocol developed for integrins was applied to each of the three proteins. All proteins were successfully labeled with an average label:protein ratio of ˜4:1. The two soluble, labeled proteins (alpha5beta1 and alphavbeta3) produced background SHG (second-harmonic generation) signals. They also produced conformational change signals upon exposure to GRGDSP (RGD-peptide, a fibronectin-derived peptide Gly-Arg-Gly-Asp-Ser-Pro). The peptide was added at 400 μM and signal changes were immediate (FIG. 1).
(§3) Next, Example 4 was pre-incubated at 100 μM with the labeled proteins for 20 minutes. RGD peptide was then added (400 μM) to stimulate the protein and to test each compound for inhibition.

alpha-v-beta-3 = target: T2, alpha-v-beta-3 (Homo sapiens, UniProt P05106+P06756); assay: as above; type: biochemical; settings: compound pre-incubated at 100 μM for 20 minutes, then RGD peptide 400 μM; labeled alpha-v-beta-3
T2 construct: obtained from academic sources as recombinant, soluble proteins (the extracellular domain)
T2 sequence (P06756 31-992 limits assumed): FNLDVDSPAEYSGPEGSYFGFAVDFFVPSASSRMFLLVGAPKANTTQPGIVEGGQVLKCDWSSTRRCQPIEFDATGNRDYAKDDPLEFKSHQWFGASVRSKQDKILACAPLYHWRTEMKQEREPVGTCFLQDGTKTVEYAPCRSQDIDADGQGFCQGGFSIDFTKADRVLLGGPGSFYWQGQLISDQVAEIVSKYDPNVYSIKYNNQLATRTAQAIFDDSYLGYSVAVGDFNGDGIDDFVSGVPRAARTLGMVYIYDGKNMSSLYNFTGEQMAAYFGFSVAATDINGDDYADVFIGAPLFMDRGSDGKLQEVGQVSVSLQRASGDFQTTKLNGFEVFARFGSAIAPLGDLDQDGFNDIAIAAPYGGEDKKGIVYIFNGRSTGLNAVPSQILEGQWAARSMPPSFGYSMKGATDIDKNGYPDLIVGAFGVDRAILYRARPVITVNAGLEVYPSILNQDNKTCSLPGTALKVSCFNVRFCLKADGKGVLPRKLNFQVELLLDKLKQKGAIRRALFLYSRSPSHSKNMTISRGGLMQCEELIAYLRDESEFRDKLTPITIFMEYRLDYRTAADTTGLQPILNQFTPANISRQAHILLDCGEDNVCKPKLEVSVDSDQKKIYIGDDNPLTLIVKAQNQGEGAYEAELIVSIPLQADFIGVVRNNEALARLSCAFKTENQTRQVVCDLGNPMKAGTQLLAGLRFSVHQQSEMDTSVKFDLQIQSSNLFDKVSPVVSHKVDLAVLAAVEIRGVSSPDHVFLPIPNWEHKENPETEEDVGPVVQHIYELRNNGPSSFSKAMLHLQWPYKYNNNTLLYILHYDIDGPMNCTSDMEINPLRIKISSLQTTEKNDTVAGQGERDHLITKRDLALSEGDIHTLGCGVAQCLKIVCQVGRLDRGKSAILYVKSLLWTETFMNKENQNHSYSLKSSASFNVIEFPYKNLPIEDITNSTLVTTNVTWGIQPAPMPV
T2 sequence (P05106 27-718 limits assumed): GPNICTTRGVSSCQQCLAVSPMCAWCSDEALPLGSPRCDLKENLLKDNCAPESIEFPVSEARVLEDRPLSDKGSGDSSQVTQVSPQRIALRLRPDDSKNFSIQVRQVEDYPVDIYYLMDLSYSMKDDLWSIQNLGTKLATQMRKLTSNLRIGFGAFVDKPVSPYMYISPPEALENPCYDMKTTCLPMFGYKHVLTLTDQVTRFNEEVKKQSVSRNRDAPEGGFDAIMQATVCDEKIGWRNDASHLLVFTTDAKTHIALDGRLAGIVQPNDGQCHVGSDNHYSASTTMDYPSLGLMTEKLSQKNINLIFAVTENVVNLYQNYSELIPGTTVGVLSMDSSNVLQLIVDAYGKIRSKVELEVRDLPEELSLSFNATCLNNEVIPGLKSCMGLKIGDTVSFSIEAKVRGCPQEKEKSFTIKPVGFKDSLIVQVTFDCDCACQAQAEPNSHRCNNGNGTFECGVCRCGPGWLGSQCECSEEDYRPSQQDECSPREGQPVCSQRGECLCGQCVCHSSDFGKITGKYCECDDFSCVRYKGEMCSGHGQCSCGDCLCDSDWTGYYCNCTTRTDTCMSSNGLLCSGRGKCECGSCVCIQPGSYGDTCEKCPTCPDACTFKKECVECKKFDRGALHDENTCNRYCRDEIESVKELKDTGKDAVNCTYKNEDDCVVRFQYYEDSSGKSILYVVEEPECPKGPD
Description: as §1, §2, §3

[1] = system: human Calu-6 lung cancer cells; assay: Tumor xenograft model; type: in vivo, SCID mice; settings: 25 mg/kg/day; for inhibition of tumor volume: once daily for 17 days, Calu-6 subcutaneous in SCID mice
Description: Female 6-week-old SCID mice were used for tumor studies. Approximately 10^6 human Calu-6 lung cancer cells growing in logarithmic phase were harvested and resuspended in media, and a single cell solution in a volume of […] was implanted subcutaneously at the right flank of each animal. 10 mice were used in the treated groups and 10 mice were used in the control groups. Systemic treatment by oral administration or iv injections with either […] of vehicle or active substance (25 mg/kg/day) was begun when tumors reached a size of 300 mm^3 and continued once daily for a total of 17 days. Visible tumors were present day 5-10 after implantation. Primary tumors were measured with digital calipers on the days indicated. Tumor volumes were calculated according to the formula: Length×width^2×0.52 as reported.

[2] = system: CNV (chorodial neovascularization); assay: Laser induced mouse eye model (CNV); type: in vivo; settings: given orally at 50 mg/kg/day, laser-induced CNV in mice
Text: This laser-induced model of CNV is a highly reproducible model that mimics many features of CNV occurring in the wet form of age-related macular degeneration (AMD), the leading cause of blindness in the elderly.

With CNC(=O)c1ccc2ncc(C(=O)O)c(Nc3ccc(OC)cc3)c2c1 [Example 4, 4-[(4-Methoxyphenyl)amino]-6-(methylcarbamoyl)quinoline-3-carboxylic Acid] as the molecule, how does the “effect on RGD-induced conformational change (SHG signal)” value (alpha-5-beta-1) read?
Its value is “prevented RGD-induced conformational change”.

What about the “effect on RGD-induced conformational change (SHG signal)” value (alpha-v-beta-3) of the same molecule?
The value was “no effect”.

What about the inhibition of angiogenesis ([1]; both groups (oral and iv), Calu-6 xenograft) of the same molecule?
Its inhibition of angiogenesis is “inhibits angiogenesis significantly”.

What about the “inhibition of tumor volume” value ([1]; iv treatment) of the same molecule?
Its value is 71%.

What about the “inhibition of tumor volume” value ([1]; oral treatment) of the same molecule?
The value was 52%.

What about the “inhibition of CNV growth in eye compared with control” value [2] of the same molecule?
The value was 42%.
